Some test systems named below: EKVX NSCLC; HCT-116 colon; LOX IMVI melanoma; M19-MEL melanoma; NCI-H226 lung; OVCAR-5 ovarian; OVCAR-8 ovarian; SNB-75 CNS; SNB-78 CNS; TK-10 renal.
Common to all, as to assay: DTP human tumour cell line panel, 48 h

Several values for one entry are separate records, joined by “and”; a condition that tells them apart may be missing. Identical values can stand only once.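 Following 48 hours of exposure in 96-well plates, responses at five concentrations were used to interpolate endpoints linearly. GI50: concentration for 50% inhibition of growth. TGI: total growth inhibition.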

Broadly, the TGI is the concentration giving total growth inhibition. Higher therefore signals lower sensitivity of the cells. The term GI50 denotes the concentration giving 50% growth inhibition.

`CCOc1ccc(NC(=O)CC2SC(=Nc3ccc(C)cc3C)NC2=O)cc1` (stereo not drawn): the TGI in the experiment with EKVX NSCLC, in the experiment on HCT-116 colon, in the experiment with LOX IMVI melanoma, in the experiment with M19-MEL melanoma, with NCI-H226 lung and in the experiment on OVCAR-5 ovarian was more than 100 µM each time. Besides, the TGI in the experiment on OVCAR-8 ovarian, in the experiment on SNB-75 CNS, with SNB-78 CNS and in the experiment with TK-10 renal was more than 100 µM each time.
`CCC(C)(C)n1c(C)nc2c1C(=O)c1ccccc1C2=O`: the TGI is more than 100 µM in the experiment on EKVX NSCLC; 35.8 µM in the experiment with HCT-116 colon; 47.3 µM in the experiment on LOX IMVI melanoma; 31.7 µM in the experiment on M19-MEL melanoma; more than 100 µM with NCI-H226 lung; more than 100 µM in the experiment with OVCAR-8 ovarian. Further, the TGI in the experiment with SNB-75 CNS, in the experiment with SNB-78 CNS and in the experiment on TK-10 renal was more than 100 µM each time.
On to `c1ccc2c(c1)CCc1c(-c3ccncc3)n[nH]c1-2`, for which the TGI with EKVX NSCLC is 75.5 µM; with HCT-116 colon it was 46.2 µM; in the experiment on LOX IMVI melanoma, 54.8 µM; with M19-MEL melanoma, 72.8 µM; with NCI-H226 lung, 55.6 µM; with OVCAR-5 ovarian, more than 100 µM. Besides, the TGI is 88.6 µM with OVCAR-8 ovarian, 77.7 µM in the experiment with SNB-75 CNS, more than 100 µM with SNB-78 CNS and more than 100 µM with TK-10 renal.
Take `CC[C@@H]1NC(C(=O)OC)Cc2c1[nH]c1ccccc21` (stereo partly drawn): the TGI in the experiment on EKVX NSCLC, in the experiment with HCT-116 colon, in the experiment on LOX IMVI melanoma, with M19-MEL melanoma, with NCI-H226 lung and with OVCAR-5 ovarian was more than 100 µM throughout. Further, the TGI in the experiment with OVCAR-8 ovarian, in the experiment with SNB-75 CNS, in the experiment on SNB-78 CNS and in the experiment with TK-10 renal was more than 100 µM each time.
With `COc1cc(C[P+](c2ccccc2)(c2ccccc2)c2ccccc2)cc(OC)c1OC`, the TGI with EKVX NSCLC, in the experiment with HCT-116 colon, in the experiment on LOX IMVI melanoma, in the experiment on M19-MEL melanoma, in the experiment on NCI-H226 lung and in the experiment with OVCAR-5 ovarian was more than 100 µM throughout. Further, the TGI with OVCAR-8 ovarian, with SNB-75 CNS, in the experiment with SNB-78 CNS and with TK-10 renal was more than 100 µM throughout.
Regarding `C/C(=N\NC(N)=O)c1sc(-c2nc(C)c(/C(C)=N/NC(N)=O)s2)nc1C`, the TGI in the experiment with EKVX NSCLC, with LOX IMVI melanoma, in the experiment with M19-MEL melanoma, in the experiment with NCI-H226 lung, in the experiment with OVCAR-5 ovarian and in the experiment on OVCAR-8 ovarian was more than 100 µM each time. The TGI in the experiment on SNB-75 CNS, in the experiment on SNB-78 CNS and with TK-10 renal was more than 100 µM throughout.
`CC12c3ccccc3C(OC=O)(c3ccccc31)C1(C)c3ccccc3C2(OC=O)c2ccccc21`: the TGI in the experiment on EKVX NSCLC, in the experiment on HCT-116 colon, in the experiment on LOX IMVI melanoma, with M19-MEL melanoma, with NCI-H226 lung and in the experiment with OVCAR-5 ovarian was more than 100 µM each time. The TGI in the experiment on OVCAR-8 ovarian, with SNB-75 CNS, in the experiment on SNB-78 CNS and with TK-10 renal was more than 100 µM each time.
Regarding `CCCCCCCCCCCC[N+]12CC[N+](CCN)(CC1)CC2`, the TGI with EKVX NSCLC was more than 100 µM; in the experiment with HCT-116 colon it was more than 100 µM; with LOX IMVI melanoma, more than 100 µM; in the experiment with M19-MEL melanoma it was more than 100 µM; with NCI-H226 lung it was more than 100 µM; in the experiment with OVCAR-5 ovarian it was 38.1 µM. The TGI was more than 100 µM with OVCAR-8 ovarian, more than 100 µM in the experiment with SNB-75 CNS, more than 100 µM in the experiment on SNB-78 CNS and 39.7 µM with TK-10 renal.
On to `O=C1c2cccc3cccc(c23)C(=O)N1CCN(CCO)CCO`, for which the TGI was 90.9 µM in the experiment with EKVX NSCLC; 46.6 µM in the experiment on HCT-116 colon; 34.5 µM in the experiment with LOX IMVI melanoma; 43.8 µM with M19-MEL melanoma; 40.1 µM with NCI-H226 lung; 49.1 µM in the experiment with OVCAR-5 ovarian. Moreover, the TGI is 35 µM in the experiment with OVCAR-8 ovarian, more than 100 µM in the experiment with SNB-75 CNS, more than 100 µM in the experiment with SNB-78 CNS and 62.3 µM in the experiment with TK-10 renal.
Consider `COc1ccc(/C=C\c2cc(OC)c(OC)c(OC)c2)cc1OCC(=O)O`, for which the TGI with EKVX NSCLC is more than 100 µM; in the experiment on HCT-116 colon it was 31.5 µM; in the experiment on LOX IMVI melanoma, more than 100 µM; in the experiment on M19-MEL melanoma it was more than 100 µM; in the experiment with NCI-H226 lung, 48.2 µM; in the experiment with OVCAR-5 ovarian it was more than 100 µM. Besides, the TGI in the experiment on OVCAR-8 ovarian was more than 58.2 µM; with SNB-75 CNS, more than 58.7 µM; with SNB-78 CNS it was more than 100 µM; with TK-10 renal it was more than 100 µM.
Consider `CC(C)=CCC1=C(O)c2ccccc2C(=O)C1=O`, for which the GI50 is 57.7 µM with EKVX NSCLC; 48.5 µM and 20.8 µM in the experiment on M19-MEL melanoma; 56.2 µM in the experiment on OVCAR-5 ovarian; > 100 µM and 26.7 µM and 20.8 µM in the experiment with OVCAR-8 ovarian; > 100 µM and 37.8 µM and 87.1 µM in the experiment on TK-10 renal. In addition, the TGI with EKVX NSCLC, in the experiment with HCT-116 colon, in the experiment with LOX IMVI melanoma, in the experiment with M19-MEL melanoma, with NCI-H226 lung and with OVCAR-5 ovarian was more than 100 µM throughout. The TGI in the experiment on OVCAR-8 ovarian, with SNB-75 CNS, with SNB-78 CNS and in the experiment with TK-10 renal was more than 100 µM in each case.
As to `CN(C)CCNC(=O)Cc1ccccc1Nc1c(Cl)cccc1Cl`, the TGI worked out at 43 µM with EKVX NSCLC; 31.2 µM with HCT-116 colon; 26.8 µM with LOX IMVI melanoma; 28.5 µM in the experiment with M19-MEL melanoma; 34.3 µM with NCI-H226 lung; 24.2 µM in the experiment with OVCAR-5 ovarian. Further, the TGI came out at 37.1 µM in the experiment with OVCAR-8 ovarian, 27.4 µM in the experiment on SNB-75 CNS, 38.7 µM with SNB-78 CNS and 27.2 µM with TK-10 renal.
For the compound `CN1Nc2ccccc2CC1=O`, the TGI in the experiment with EKVX NSCLC, in the experiment with HCT-116 colon, with LOX IMVI melanoma, with M19-MEL melanoma, in the experiment on NCI-H226 lung and in the experiment on OVCAR-5 ovarian was more than 100 µM in each case. In addition, the TGI in the experiment with OVCAR-8 ovarian, in the experiment on SNB-75 CNS, in the experiment on SNB-78 CNS and in the experiment with TK-10 renal was more than 100 µM throughout.

Source of the values: PubChem BioAssay (NCI).
